Reference: paper PMC7190706, “A Self-Assembling Lipidic Peptide and Selective Partial V2 Receptor Agonist Inhibits Urine Production” (Scientific Reports, 2020)
Each block holds one molecule with its values, some of them ahead of it.

Tests used:
[1] = tested on: MDCK cell line; settings: read-out: EC50 functional activity (fluid secretion); cited from earlier work
[2] = target: T1, V2 receptor (Canis lupus familiaris, UniProt O77808); assay: V2 receptor agonism, cAMP accumulation in MDCK cells (cAMP EIA); assay type: cell-based, dog
T1 construct: MDCK cells expressing the V2 receptor were cultured; endogenous in cells; host or cells: MDCK cells

[3] = tested on: spontaneous uterine contractions; assay: Spontaneous contractions of isolated uterine strips (organ bath); set-up: species or system rat; settings: METx 41 nM
Description: Female Wistar rats (203–225 g) were killed with CO2 on the day of the experiments. The uterus was excised and dissected into longitudinal strips (0.5 ×1.3–1.4 cm) from the anti-mesometrial side of the mid-portion of horns which contained implantation sites.
The uterine strips were suspended in an organ bath that contained physiological salt solution (PSS, 25 ml: 116 mM NaCl, 4.6 mM KCl, 1.16 mM NaH2PO4.H2O, 1.16 mM MgSO4.7H2O, 21.9 mM NaHCO3, 1.8 mM CaCl2.2H2O, 11.6 mM dextrose, 0.03 mM CaNa2EDTA, pH = […]). The water-jacketed bath was maintained at 36 °C and aerated with a mixture of 95% O2 and 5% CO2. Only one strip from each animal was used. The uterine strip was tied at the bottom end to a fixed metal hook and at the top end to a force displacement transducer (Harvard Instruments, Kent, UK) using a cotton thread. The force displacement transducer was coupled to an amplifier driving a direct writing oscillograph (Universal Oscillograph, Harvard, Kent, UK). A cumulative dose procedure was used and isotonic contractions recorded.
To quantify the effect of METx on spontaneous uterine contractions the myometrial strips from the same uterus as above, but from the opposite horn, were equilibrated for 60 min within the organ bath and then a single dose of DMF applied followed by doses of METx as shown in Table 1 in the Supplementary Information. […]

[4] = Spontaneously voided urine volume and osmolality after intravenous injection in healthy rats; assay type: in vivo; settings: METx (5: 1) nanoparticle formulation, rat
Description: Male Sprague Dawley rats (220–250 g) were housed five per cage in an air conditioned unit maintained at 20–22 °C and 50–60% humidity, with lighting controlled on a twelve-hour cycle. The lights were switched on at 07:00 and off at 19:00. Animals were allowed free access to standard rodent chow and water. Before experimentation, animals were habituated for 7 days within the unit. Prior to testing animals were acclimatised to the procedure room for 1 hour. Animals were also acclimatised to the metabolic cages for 20 minutes per day for 5 days before the day of experiment. Animals were randomly assigned into one of four groups; untreated, and animals receiving an intravenous injection of 10, 20 or 40 mg kg^−1 of METx as a GCPQ, METx (5: 1) nanoparticle formulation (n = 3) in a dose volume of 0.9 mL. The formulations were freshly prepared on the morning of the experiment as described above and the pH of the formulation adjusted to pH = 7 using sodium hydroxide (1 M). After receiving their METx formulations, animals were placed within individual metabolic cages (Techniplast, Italy) with access to water. Spontaneously voided urine was collected for 4 hours. Urine osmolality was determined by freezing point depression using a Type 5r osmometer (Loser, Germany).

[5] = target: T2, OT receptor (Rattus norvegicus, UniProt P70536); assay: OT induced contractions of isolated uterine strips (organ bath); settings: for 1/Rmax of double reciprocal plot (1/R vs 1/[OT]): Rmax = maximum contractile response in cm
T2 construct: OT receptors from rat uterine strips for our receptor activity assays; from tissue; host or cells: uterine strips of female Wistar rats
T2 sequence (P70536 1-388): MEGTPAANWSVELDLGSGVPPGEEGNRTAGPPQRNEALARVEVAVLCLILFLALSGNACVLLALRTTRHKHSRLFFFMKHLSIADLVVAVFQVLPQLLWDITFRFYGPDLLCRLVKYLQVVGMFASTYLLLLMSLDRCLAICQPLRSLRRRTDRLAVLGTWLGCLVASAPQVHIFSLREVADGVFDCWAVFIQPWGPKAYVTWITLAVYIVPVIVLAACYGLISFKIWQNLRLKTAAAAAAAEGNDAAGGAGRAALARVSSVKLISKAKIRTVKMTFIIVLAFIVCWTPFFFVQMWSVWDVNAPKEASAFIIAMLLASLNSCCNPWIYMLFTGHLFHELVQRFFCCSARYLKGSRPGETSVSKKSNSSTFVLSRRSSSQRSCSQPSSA
Text: The uterus was excised and dissected into longitudinal strips (0.5 ×1.3–1.4 cm) from the anti-mesometrial side of the mid-portion of horns which contained implantation sites.
Only one strip from each animal was used. The uterine strip was tied at the bottom end to a fixed metal hook and at the top end to a force displacement transducer (Harvard Instruments, Kent, UK) using a cotton thread. The force displacement transducer was coupled to an amplifier driving a direct writing oscillograph (Universal Oscillograph, Harvard, Kent, UK). A cumulative dose procedure was used and isotonic contractions recorded.
DMF was added as DMF had been used to solubilise METx. […] The mean peak amplitude (MPA) was calculated from Eq. 1.1 MPA=ΣPH/n where PH = peak heights obtained within the 10 minute period immediately after addition of METx, OT or dimethylformamide and n = number of peaks within the same 10 minute period. The frequency of isotonic contractions was also evaluated during the 10 minute period immediately after the addition of METx, OT or dimethylformamide.
The organ bath was not washed out until a maximal response was reached. The MPA was calculated as shown in Equation 1, except that the recordings were done after the addition of each dose of OT and the MPA was calculated over a 5 minute period. To quantify the effect of METx on OT induced contractions, METx (final bath concentration = 0.1, 0.3 or 0.6 µM) was added to the organ bath prior to the addition of OT (Table 2 – Supplementary Information). […] Results were plotted as a percentage of the maximum contraction obtained with KCl against concentration. A double reciprocal plot was used to assess the nature of the receptor antagonism observed.
(1 picture or pasted object on this page, not shown here)

[6] = Plasma stability in 30% rat plasma, HPLC; assay type: in vitro ADME; settings: 37 °C
Description: The plasma stability of METx was evaluated prior to an in vivo study. Blood was collected from male Sprague Dawley rats (n = 3, 200–250 g) into a vacutainer coated with ethylene diamine tetra-acetic acid (EDTA) and kept on ice (4 °C) until the plasma could be separated by centrifugation (10 min at 2000g and 4 °C, Hermle z323k centrifuge, HERMLE Labortechnik, Germany). The separated rat plasma was stored at −20 °C until required. On the day of the experiment, the plasma was thawed just prior to the experiment and diluted to 30% v/v using NaCl (0.9%). METx (7.2 × 10^−4M, 50 μL) was added to the diluted plasma (30% v/v, 450μL) that had been allowed to warm for 30 minutes at 37 °C either as a solution in dimethylsulfoxide or as a GCPQ nanoparticle formulation dispersed in water. The formulations and free drug were incubated at 37 °C with shaking for a maximum of 4 hours. At regular time intervals aliquots (50μL) were removed and mixed with dimethylformamide (150μL) to dissolve the METx and precipitate the plasma proteins. Samples were then immediately vortexed and centrifuged for 10 minutes at 13,000 rpm (MSE micro centaur centrifuge, MSE, UK). The supernatant (100μL) was collected and 40 μL was analysed using a reverse phase high performance liquid chromatography (HPLC) method. HPLC analyses was performed using an Agilent 1200 HPLC system (Agilent Technologies, UK) equipped with a quaternary pump, degasser, autosampler and a UV detector. Samples were chromatographed over a reverse phase column: Phenomenex Onyx Monolithic C18 column (5μm, 4.6 ×100 mm, Phenomenex, UK) connected in series with a guard column (5μm, 4.6 ×10 mm). The column temperature was kept constant at 35 °C. Separation was performed using an acetonitrile, water mobile phase gradient method (Table 3 – Supplementary Information) at a flow rate of 1.5 mL per minute, with detection at a wavelength of 280 nm.

[7] = target: T3, V1a receptor (Rattus norvegicus, UniProt P30560); assay: V1a receptor agonism, IP-1 ELISA in A7r5 cells; assay type: cell-based
T3 construct: V1a receptors from A7r5 cells; endogenous in cells; host or cells: A7r5 rat smooth muscle cells
Text: microplate reader. […] The
hours. […] The cells were
manufacturer’s instructions.

[8] = tested on: human V1a receptor; set-up: method as in PMID 22375852; settings: cited from earlier work

T1 sequence (O77808 whole entry): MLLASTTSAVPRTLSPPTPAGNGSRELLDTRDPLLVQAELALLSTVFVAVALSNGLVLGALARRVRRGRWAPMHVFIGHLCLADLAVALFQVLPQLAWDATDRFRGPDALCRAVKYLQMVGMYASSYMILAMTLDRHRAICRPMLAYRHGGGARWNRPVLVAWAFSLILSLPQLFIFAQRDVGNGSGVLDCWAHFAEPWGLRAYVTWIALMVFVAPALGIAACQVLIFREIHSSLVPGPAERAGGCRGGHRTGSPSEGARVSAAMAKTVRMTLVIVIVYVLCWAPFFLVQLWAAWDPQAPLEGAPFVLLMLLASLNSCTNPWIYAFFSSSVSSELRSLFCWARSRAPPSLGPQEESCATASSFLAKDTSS
T3 sequence (P30560 whole entry): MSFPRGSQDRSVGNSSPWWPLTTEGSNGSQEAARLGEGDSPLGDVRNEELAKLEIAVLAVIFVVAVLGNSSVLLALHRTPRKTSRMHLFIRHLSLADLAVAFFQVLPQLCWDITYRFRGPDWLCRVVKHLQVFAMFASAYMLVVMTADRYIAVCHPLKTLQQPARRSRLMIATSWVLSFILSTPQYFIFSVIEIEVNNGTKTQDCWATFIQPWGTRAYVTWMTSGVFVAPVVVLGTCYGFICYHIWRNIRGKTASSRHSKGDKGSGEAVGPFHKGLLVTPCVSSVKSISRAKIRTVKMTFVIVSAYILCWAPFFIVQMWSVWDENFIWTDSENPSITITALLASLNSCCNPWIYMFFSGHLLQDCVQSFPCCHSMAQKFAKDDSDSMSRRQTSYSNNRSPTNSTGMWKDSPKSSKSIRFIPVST

Molecule: N=C(N)NCCC[C@H](NC(=O)[C@@H]1CCCN1C(=O)[C@@H]1CSSC[C@H](N)C(=O)N[C@@H](Cc2ccc(O)cc2)C(=O)N[C@@H](Cc2ccccc2)C(=O)N[C@@H](CCC(N)=O)C(=O)N[C@@H](CC(N)=O)C(=O)N1)C(=O)NCC(N)=O [AVP, arginine vasopressin, reference compound]
- EC50 [1]: 0.36 nM
- concentration at which the maximal cAMP response was seen [2]: 100 nM

- OT antagonist concentration relative to EC50 at the V2 receptor ([5]; 300 nM versus V2 EC50): 100 fold
- shift of the OT dose response curve to the right ([5]; METx 300 nM and 600 nM, amplitude of OT induced contractions, p < 0.05): two orders of magnitude
- nature of antagonism at the OT receptor ([5]; from double reciprocal plots): non-competitive antagonist
- 1/Rmax of double reciprocal plot (1/R vs 1/[OT]) ([5]; inhibitor 100 nM): 0.48
- 1/Rmax of double reciprocal plot (1/R vs 1/[OT]) ([5]; inhibitor 300 nM): 0.97
- 1/Rmax of double reciprocal plot (1/R vs 1/[OT]) ([5]; inhibitor 600 nM): 1.33
- concentration at which antagonism at the OT receptor starts ([5]; uterine strips): 300 nM
- degradation over the 4 hour incubation ([6]; 30% rat plasma, 4 hour): completely degraded
- time to complete degradation ([6]; 30% v/v rat plasma): ≤ 60 min
- concentration at which the maximal cAMP response was seen [2]: 10 nM
Molecule: CCCCCCCCCCCCCCCC(=O)NCCCC[C@H](NC(=O)CNC(=O)[C@H](CC(C)C)NC(=O)[C@@H]1CCCN1C(=O)[C@@H]1CSSC[C@H](N)C(=O)N[C@@H](Cc2ccc(O)cc2)C(=O)N[C@@H]([C@@H](C)CC)C(=O)N[C@@H](CCC(N)=O)C(=O)N[C@@H](CC(N)=O)C(=O)N1)C(=O)O [METx]
- effect on spontaneous uterine contractions [3]: no effect
- osmolality of the urine ([4]; 20 mg kg^−1 intravenous as GCPQ): increased significantly
- urine production ([4]; 40 mg kg^−1 intravenous as GCPQ, 4 hour observation period): no urine at all
- spontaneously voided urine volume, dose dependence ([4]; 10, 20 or 40 mg kg^−1 intravenous as GCPQ, 4 hours): dose correlated reduction in urine production
- effect on OT induced contractions ([5]; 100 nm of inhibitor): not effective in reducing OT induced contractions
- order of stability ([6]; 30% rat plasma): METx, Polymer (1: 5)> METx, Polymer (1: 7)> METx> METx, Polymer (1: 4)

Molecule: CC[C@H](C)[C@@H]1NC(=O)[C@H](Cc2ccc(O)cc2)NC(=O)[C@@H](N)CSSC[C@@H](C(=O)N2CCC[C@H]2C(=O)N[C@@H](CC(C)C)C(=O)NCC(N)=O)NC(=O)[C@H](CC(N)=O)NC(=O)[C@H](CCC(N)=O)NC1=O [OT, oxytocin, reference compound]
- EC50 [5]: 0.081 nM

Molecule: desmopressin
- agonism at the V1a receptor [7]: not an agonist at the V1a receptor
- EC50 [1]: 0.7 nM
- affinity for the human V1a receptor [8]: does not show any affinity
